This note sets out measurements from BindingDB's records for doi:10.3109/14756360903389864 (Quaid-I-Azam University, 2010).

SMILES strings stand for the structures.

For orientation: IC50 means the midpoint of a concentration-inhibition curve. Low values mean inhibition by little substance, high ones a need for much substance.

The test deals with Urease (Canavalia ensiformis, UniProt P07374). Put plainly: Urease Inhibition Assay.
Urease, sequence (P07374 whole entry): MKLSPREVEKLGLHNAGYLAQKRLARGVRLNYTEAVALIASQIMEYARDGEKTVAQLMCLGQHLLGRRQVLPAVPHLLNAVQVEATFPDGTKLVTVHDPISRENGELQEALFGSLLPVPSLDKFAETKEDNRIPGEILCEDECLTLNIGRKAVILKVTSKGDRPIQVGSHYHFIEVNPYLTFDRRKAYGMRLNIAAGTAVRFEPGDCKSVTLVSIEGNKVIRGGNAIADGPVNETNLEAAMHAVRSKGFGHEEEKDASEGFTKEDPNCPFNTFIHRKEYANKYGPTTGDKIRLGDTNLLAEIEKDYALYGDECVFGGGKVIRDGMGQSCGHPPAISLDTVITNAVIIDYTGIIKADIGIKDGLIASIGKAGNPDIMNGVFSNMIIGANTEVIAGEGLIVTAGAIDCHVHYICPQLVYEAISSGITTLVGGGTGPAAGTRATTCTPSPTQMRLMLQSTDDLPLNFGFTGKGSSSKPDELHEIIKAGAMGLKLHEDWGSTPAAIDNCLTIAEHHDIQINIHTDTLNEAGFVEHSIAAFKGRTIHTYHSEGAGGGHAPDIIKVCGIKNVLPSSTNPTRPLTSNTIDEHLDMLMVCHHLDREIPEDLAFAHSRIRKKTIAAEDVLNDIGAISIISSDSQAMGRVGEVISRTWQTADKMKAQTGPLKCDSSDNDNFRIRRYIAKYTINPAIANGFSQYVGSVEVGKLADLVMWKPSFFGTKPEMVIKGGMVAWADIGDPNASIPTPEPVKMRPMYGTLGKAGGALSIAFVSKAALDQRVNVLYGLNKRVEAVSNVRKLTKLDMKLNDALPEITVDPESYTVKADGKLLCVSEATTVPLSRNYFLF
With `Cc1ccc(Nc2nnc(C(O)c3ccccc3)o2)cc1` (stereo unspecified) [5-(Hydroxybenzyl)-2-(4-methylphenyl)amino-1,3,4-oxadiazole (4d)], the IC50 was found to be 16.1 µM.

`O=[N+]([O-])c1ccc(-n2c(C(O)c3ccccc3)n[nH]c2=S)cc1` (stereo unspecified) [5-(Hydroxybenzyl)-4-(4-nitrophenyl)-2H-1,2,4-triazole-3-thione (5e)] registered an IC50 of 132 µM. Compared with the last molecule, the IC50 is about 8.2-fold higher.

`OC(c1ccccc1)c1n[nH]c(=S)n1-c1ccc(Br)cc1` (stereo unspecified) [5-(Hydroxybenzyl)-4-(4-bromophenyl)-2H-1,2,4-triazole-3-thione (5a)]: the IC50 came to 32 µM. Compared with the last molecule, the IC50 is about 4.1-fold lower.

Turning to `OC(c1ccccc1)c1n[nH]c(=S)n1-c1ccc(Cl)cc1` (stereo unspecified) [5-(Hydroxybenzyl)-4-(4-chlorophenyl)-2H-1,2,4-triazole-3-thione (5b)], inhibition was half-maximal at 18.9 µM (IC50).

`Cc1ccc(-n2c(C(O)c3ccccc3)n[nH]c2=S)cc1` (stereo unspecified) [5-(Hydroxybenzyl)-4-(4-methylphenyl)-2H-1,2,4-triazole-3-thione (5d)] had an IC50 of 16.7 µM.

Consider `O=[N+]([O-])c1ccc(Nc2nnc(C(O)c3ccccc3)o2)cc1` (stereo unspecified) [5-(Hydroxybenzyl)-2-(4-nitrophenyl)amino-1,3,4-oxadiazole (4e)], for which the IC50 was found to be 80.3 µM. Compared with the last molecule, the IC50 is about 4.8-fold higher.
